Data on 14 compounds can be found in patent US11427586B2, “1,2,4-oxadiazole derivatives as liver X receptor agonists” (NOVARTIS AG, priority 2019, dated 2022).

The structures appear in SMILES notation. Where two headings read alike, the source gives them in different places.

One assay has as its system SCD1. Kind of assay: Measurement of SCD1 expression in SZ95-SCD1-HiBit cells (HiBiT assay). The conditions noted are these: Homo sapiens, 48 h; for EC50: SCD1 protein production, luminescence, initial dilution 1:3 in DMSO, read-out: HiBit EC50. In kind it is cell-based. (The HiBiT peptide binds its large partner to form an active luciferase.)
The next assay relates to SZ95 sebocytes. Kind of assay: Sentinel Lipid Assay (SLA), desaturation index in SZ95 sebocytes. Format: cell-based. The conditions noted are these: Homo sapiens, 72 h; for EC50: desaturation index, lowest dose used 4.6 nM, read-out: SLA EC50. A digest of the protocol: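 SZ95 human sebocytes on fibronectin-coated plates, dosed 72 h at 37 °C with 1:3 dilutions from 10 μM; lipids extracted with deuterated triglyceride internal standards and quantified by LC-MS/MS (MRM) as 11 sentinel lipids. Desaturation index from elastic-net coefficients, normalized to DMSO; Amax relative to a reference LXR agonist.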

Where [1] appears, read: normalized Amax based on the reference compound Amax of 100%, read-out: HiBit Normalized Amax.
Setting [2] is: SZ95-SCD1-HiBit cells, compared to reference compound, read-out: HiBit Amax.
[3] abbreviates: normalized Amax based on the reference compound Amax of 100%, read-out: SLA Normalized Amax.
[4] abbreviates: SZ95 cells, compared to reference compound, read-out: SLA Amax.

For the compound `CC(O)CS(=O)(=O)c1ccccc1Oc1ccc(-c2noc(CN3C(=O)N(CCN4CCOCC4)C(C)(C)C3=O)n2)cc1C(F)(F)F` (stereo not drawn) [Compound 52, 3-((3-(4-(2-((2-hydroxypropyl)sulfonyl)phenoxy)-3-(trifluoromethyl)phenyl)-1,2,4-oxadiazol-5-yl)methyl)-5,5-dimethyl-1-(2-morpholinoethyl)imidazolidine-2,4-dione], the Emax with SCD1 (setting [1]) was 79.5%; with SCD1 (setting [2]), 75.6%; in the assay with SZ95 sebocytes (setting [3]), 119%; with SZ95 sebocytes (setting [4]) it was 114%. For the same compound, the EC50 in the assay on SCD1 (SZ95-SCD1-HiBit cells) was 2.91 nM; in the assay on SZ95 sebocytes (SZ95 cells), at most 4.6 nM.
Regarding `CC(C)CS(=O)(=O)c1ccccc1Oc1ccc(-c2noc(CN3C(=O)N(CCN4CCOCC4)C4(CCN(C(=O)CC5CC5)CC4)C3=O)n2)cc1C(F)(F)F` [Compound 28, 8-(2-cyclopropylacetyl)-3-((3-(4-(2-(isobutylsulfonyl)phenoxy)-3-(trifluoromethyl)phenyl)-1,2,4-oxadiazol-5-yl)methyl)-1-(2-morpholinoethyl)-1,3,8-triazaspiro[4.5]decane-2,4-dione], the Emax in the assay with SCD1 (setting [1]) came to 74.8%; with SCD1 (setting [2]), 71.1%; in the assay on SZ95 sebocytes (setting [3]), 145%; in the assay with SZ95 sebocytes (setting [4]) it was 139%. For the same compound, the EC50 with SCD1 (SZ95-SCD1-HiBit cells) is 0.697 nM; in the assay with SZ95 sebocytes (SZ95 cells), at most 4.6 nM.
Take `CC1(C)C(=O)N(Cc2nc(-c3ccc(Oc4ccccc4S(=O)(=O)CC4CCOC4)c(C(F)(F)F)c3)no2)C(=O)N1CCN1CCOCC1` (stereo not drawn) [Compound 38, 5,5-dimethyl-1-(2-morpholinoethyl)-3-((3-(4-(2-(((tetrahydrofuran-3-yl)methyl)sulfonyl)phenoxy)-3-(trifluoromethyl)phenyl)-1,2,4-oxadiazol-5-yl)methyl)imidazolidine-2,4-dione]: the Emax is 75.8% in the assay with SCD1 (setting [1]), 72.1% with SCD1 (setting [2]), 160% with SZ95 sebocytes (setting [3]) and 154% with SZ95 sebocytes (setting [4]). Besides, the EC50 with SCD1 (SZ95-SCD1-HiBit cells) was 5.26 nM; in the assay with SZ95 sebocytes (SZ95 cells) it was at most 4.6 nM.
Take `CC(COc1ccc(-c2noc(CN3C(=O)N(CCN4CCOCC4)C4(CCN(C(=O)c5cncnc5)CC4)C3=O)n2)cc1C(F)(F)F)(C(F)(F)F)C(F)(F)F` [Compound 30, 1-(2-morpholinoethyl)-8-(pyrimidine-5-carbonyl)-3-((3-(4-(3,3,3-trifluoro-2-methyl-2-(trifluoromethyl)propoxy)-3-(trifluoromethyl)phenyl)-1,2,4-oxadiazol-5-yl)methyl)-1,3,8-triazaspiro[4.5]decane-2,4-dione]: the Emax worked out at 89.3% in the assay with SCD1 (setting [1]), 84.9% in the assay on SCD1 (setting [2]), 85.5% in the assay on SZ95 sebocytes (setting [3]) and 82.1% with SZ95 sebocytes (setting [4]). In addition, the 50% effective concentration (EC50) in the assay on SCD1 (SZ95-SCD1-HiBit cells) was 1.04 nM; with SZ95 sebocytes (SZ95 cells), 34.4 nM.
Take `CC(C)CS(=O)(=O)c1ccccc1Oc1ccc(-c2noc(CN3C(=O)N(CCN4CCOCC4)C(C)(CO)C3=O)n2)cc1C(F)(F)F` (stereo not drawn) [Compound 46, 5-(hydroxymethyl)-3-((3-(4-(2-(isobutylsulfonyl)phenoxy)-3-(trifluoromethyl)phenyl)-1,2,4-oxadiazol-5-yl)methyl)-5-methyl-1-(2-morpholinoethyl)imidazolidine-2,4-dione]: the Emax with SCD1 (setting [1]) amounted to 98%; in the assay with SCD1 (setting [2]), 93.2%; with SZ95 sebocytes (setting [3]), 170%; with SZ95 sebocytes (setting [4]) it was 163%. Moreover, the EC50 is 6.06 nM with SCD1 (SZ95-SCD1-HiBit cells) and at most 4.6 nM in the assay on SZ95 sebocytes (SZ95 cells).
`O=C1N(Cc2nc(-c3ccc(Oc4ccccc4S(=O)(=O)CC(F)(F)F)c(C(F)(F)F)c3)no2)C(=O)C2(CCN(C3CCC3)CC2)N1CCN1CCOCC1` [Compound 47, 8-cyclobutyl-1-(2-morpholinoethyl)-3-((3-(4-(2-((2,2,2-trifluoroethyl)sulfonyl)phenoxy)-3-(trifluoromethyl)phenyl)-1,2,4-oxadiazol-5-yl)methyl)-1,3,8-triazaspiro[4.5]decane-2,4-dione]: the Emax stood at 80.5% with SCD1 (setting [1]), 76.6% in the assay with SCD1 (setting [2]), 147% in the assay with SZ95 sebocytes (setting [3]) and 142% in the assay on SZ95 sebocytes (setting [4]). The figures for the concentration for a half-maximal effect (EC50) in the assay on SCD1 (SZ95-SCD1-HiBit cells) and with SZ95 sebocytes (SZ95 cells) were 0.728 nM and at most 4.6 nM, respectively.
As to `CC1(C)C(=O)N(Cc2nc(-c3ccc(Oc4ccccc4S(=O)(=O)C4CC(O)C4)c(C(F)(F)F)c3)no2)C(=O)N1CCN1CCOCC1` (stereo not drawn) [Compound 39, 3-((3-(4-(2-((3-hydroxycyclobutyl)sulfonyl)phenoxy)-3-(trifluoromethyl)phenyl)-1,2,4-oxadiazol-5-yl)methyl)-5,5-dimethyl-1-(2-morpholinoethyl)imidazolidine-2,4-dione], the Emax in the assay on SCD1 (setting [1]) is 93.9%; in the assay on SCD1 (setting [2]) it was 89.3%; with SZ95 sebocytes (setting [3]), 170%; in the assay on SZ95 sebocytes (setting [4]), 164%. For the same compound, the half-maximal effective concentration (EC50) was 1.4 nM in the assay on SCD1 (SZ95-SCD1-HiBit cells) and at most 4.6 nM in the assay on SZ95 sebocytes (SZ95 cells).
Take `CC(C)CS(=O)(=O)c1ccccc1Oc1ccc(-c2noc(CN3C(=O)N(CCN4CCOCC4)C4(CCC4)C3=O)n2)cc1C(F)(F)F` [Compound 45, 7-((3-(4-(2-(isobutylsulfonyl)phenoxy)-3-(trifluoromethyl)phenyl)-1,2,4-oxadiazol-5-yl)methyl)-5-(2-morpholinoethyl)-5,7-diazaspiro[3.4]octane-6,8-dione]: the Emax with SCD1 (setting [1]) came to 94.2%; in the assay with SCD1 (setting [2]), 89.6%; in the assay with SZ95 sebocytes (setting [3]), 162%; in the assay with SZ95 sebocytes (setting [4]), 155%. Also, the EC50 in the assay on SCD1 (SZ95-SCD1-HiBit cells) was 2.52 nM; in the assay with SZ95 sebocytes (SZ95 cells), at most 4.6 nM.
With `CC(C)CS(=O)(=O)c1ccccc1Oc1ccc(-c2noc(CN3C(=O)N(CCC4CCOCC4)C4(CCN(C(=O)c5cncnc5)CC4)C3=O)n2)cc1C(F)(F)F` [Compound 37, 3-((3-(4-(2-(isobutylsulfonyl)phenoxy)-3-(trifluoromethyl)phenyl)-1,2,4-oxadiazol-5-yl)methyl)-8-(pyrimidine-5-carbonyl)-1-(2-(tetrahydro-2H-pyran-4-yl)ethyl)-1,3,8-triazaspiro[4.5]decane-2,4-dione], the Emax in the assay on SCD1 (setting [1]) worked out at 91.8%; in the assay on SCD1 (setting [2]) it was 87.3%; in the assay with SZ95 sebocytes (setting [3]), 145%; in the assay with SZ95 sebocytes (setting [4]), 140%. Moreover, the concentration giving a half-maximal response (EC50) with SCD1 (SZ95-SCD1-HiBit cells) is 0.066 nM; with SZ95 sebocytes (SZ95 cells) it was at most 4.6 nM.
Consider `CC(C)CS(=O)(=O)c1ccccc1Oc1ccc(-c2noc(CN3C(=O)N(CCN4CCOCC4)C4(CCNCC4)C3=O)n2)cc1C(F)(F)F` [Compound 9, 3-((3-(4-(2-(isobutylsulfonyl)phenoxy)-3-(trifluoromethyl)phenyl)-1,2,4-oxadiazol-5-yl)methyl)-1-(2-morpholinoethyl)-1,3,8-triazaspiro[4.5]decane-2,4-dione], for which the Emax in the assay on SCD1 (setting [1]) is 98.1%; in the assay with SCD1 (setting [2]), 93.3%; with SZ95 sebocytes (setting [3]), 147%; in the assay with SZ95 sebocytes (setting [4]) it was 142%. For the same compound, the results for the half-maximal effective concentration (EC50) in the assay with SCD1 (SZ95-SCD1-HiBit cells) and in the assay on SZ95 sebocytes (SZ95 cells) were 3.3 nM and at most 4.6 nM, respectively.
Turning to `CC1(C)C(=O)N(Cc2nc(-c3ccc(Oc4ccccc4S(=O)(=O)CC4CCCCO4)c(C(F)(F)F)c3)no2)C(=O)N1CCN1CCOCC1` (stereo not drawn) [Compound 53, 5,5-dimethyl-1-(2-morpholinoethyl)-3-((3-(4-(2-(((tetrahydro-2H-pyran-2-yl)methyl)sulfonyl)phenoxy)-3-(trifluoromethyl)phenyl)-1,2,4-oxadiazol-5-yl)methyl)imidazolidine-2,4-dione], the Emax in the assay with SCD1 (setting [1]) turned out to be 101%; in the assay on SCD1 (setting [2]) it was 96.2%; in the assay with SZ95 sebocytes (setting [3]) it was 146%; in the assay with SZ95 sebocytes (setting [4]), 140%. The EC50 with SCD1 (SZ95-SCD1-HiBit cells) was 0.264 nM; in the assay on SZ95 sebocytes (SZ95 cells) it was at most 4.6 nM.
As for `CC(C)CS(=O)(=O)c1ccccc1Oc1ccc(-c2noc(CN3C(=O)N(CCN4CCOCC4)C4(CCN(C(=O)c5cncnc5)CC4)C3=O)n2)cc1C(F)(F)F` [Compound 29, 3-((3-(4-(2-(isobutylsulfonyl)phenoxy)-3-(trifluoromethyl)phenyl)-1,2,4-oxadiazol-5-yl)methyl)-1-(2-morpholinoethyl)-8-(pyrimidine-5-carbonyl)-1,3,8-triazaspiro[4.5]decane-2,4-dione], the Emax in the assay on SCD1 (setting [1]) was 87.7%; in the assay on SCD1 (setting [2]), 83.4%; with SZ95 sebocytes (setting [3]), 135%; in the assay with SZ95 sebocytes (setting [4]), 129%. Also, the EC50 in the assay with SCD1 (SZ95-SCD1-HiBit cells) was 0.796 nM; with SZ95 sebocytes (SZ95 cells), at most 4.6 nM.
As for `CC(C)CS(=O)(=O)c1ccccc1Oc1ccc(-c2noc(CN3C(=O)N(CCC4CCOCC4)C4(CCN(C(=O)c5cnccn5)CC4)C3=O)n2)cc1C(F)(F)F` [Compound 36, 3-((3-(4-(2-(isobutylsulfonyl)phenoxy)-3-(trifluoromethyl)phenyl)-1,2,4-oxadiazol-5-yl)methyl)-8-(pyrazine-2-carbonyl)-1-(2-(tetrahydro-2H-pyran-4-yl)ethyl)-1,3,8-triazaspiro[4.5]decane-2,4-dione], the Emax came out at 81.5% in the assay with SCD1 (setting [1]), 77.5% in the assay with SCD1 (setting [2]), 131% in the assay with SZ95 sebocytes (setting [3]) and 126% with SZ95 sebocytes (setting [4]). Moreover, the results for the concentration for a half-maximal effect (EC50) with SCD1 (SZ95-SCD1-HiBit cells) and with SZ95 sebocytes (SZ95 cells) were 0.119 nM and at most 4.6 nM, respectively.
As to `CCCC(=O)N1CCC2(CC1)C(=O)N(Cc1nc(-c3ccc(Oc4ccccc4S(=O)(=O)CC(C)C)c(C(F)(F)F)c3)no1)C(=O)N2CCN1CCOCC1` [Compound 35, 8-butyryl-3-((3-(4-(2-(isobutylsulfonyl)phenoxy)-3-(trifluoromethyl)phenyl)-1,2,4-oxadiazol-5-yl)methyl)-1-(2-morpholinoethyl)-1,3,8-triazaspiro[4.5]decane-2,4-dione], the Emax in the assay on SCD1 (setting [1]) amounted to 73.1%; in the assay with SCD1 (setting [2]) it was 69.5%; in the assay on SZ95 sebocytes (setting [3]), 122%; in the assay on SZ95 sebocytes (setting [4]), 117%. The EC50 is 0.616 nM in the assay on SCD1 (SZ95-SCD1-HiBit cells) and 17.2 nM with SZ95 sebocytes (SZ95 cells).

What is called EC50 is the concentration giving half of the maximal effect.
